Legend:
[1] = system: BPH; assay: Therapeutic effects on BPH: Test One (castrated rats, testosterone propionate); assay type: in vivo, SD rats; settings: for Average Weight of Prostate: one month
Procedure: Sixty male SD rats were randomly divided into 6 groups, ten each. The animals were anesthetized using ketamine and castrated by removing testis under sterile conditions. After the surgery, the penicillin was injected to prevent the animals from infection. One week later, the testosterone propionate was injected subcutaneously at dose of 1 mg/rat for a month, once a day. Group 1 was served as a negative control group, and the animals of group 1 were given saline orally without any active pharmaceutical ingredient for a month beginning on the same day the testosterone propionate was injected. Group 2 was served as positive control group in which animals were given estradiol subcutaneously at a dose of 0.1 mg/rat for a month beginning on the same day the testosterone propionate was injected. Groups from 3 to 6 was served as drug treatment groups in which animals were given tested articles on the same day the testosterone propionate was injected.
(§1) Twenty-four hrs after the last dosage, the animals were euthanized and weighed. Volume and weight of prostate were measured. The averages of volume/weight and organ coefficient (average weight of prostate/average of body weight) were calculated, and statistical analysis performed (t test).

[2] = system: non-bacterial prostatitis; assay: Therapeutic effects on non-bacterial prostatitis (Xiaozhiling injection into prostate); assay type: in vivo, SD rats; settings: for Average of Body Weight / Average Volume of Prostate / Average Weight of Prostate / Inhibition of Organ-coefficient / Organ Coefficient: 5 weeks; for Bleeding: no. of animals with score 0 / Bleeding: no. of animals with score + / Bleeding: no. of animals with score ++ / Bleeding: no. of animals with score +++ / Chronic Inflammatory Infiltration: no. of animals with score 0 / Chronic Inflammatory Infiltration: no. of animals with score + / Chronic Inflammatory Infiltration: no. of animals with score ++ / Chronic Inflammatory Infiltration: no. of animals with score +++ / Congestion: no. of animals with score 0 / Congestion: no. of animals with score + / Congestion: no. of animals with score ++ / Congestion: no. of animals with score +++ / Edema: no. of animals with score 0 / Edema: no. of animals with score + / Edema: no. of animals with score ++ / Edema: no. of animals with score +++ / Fibrous Exudation: no. of animals with score 0 / Fibrous Exudation: no. of animals with score + / Fibrous Exudation: no. of animals with score ++ / Fibrous Exudation: no. of animals with score +++ / Histopathological score of prostatitis, Overall Average X ± SD / Hyperblastosis: no. of animals with score 0 / Hyperblastosis: no. of animals with score + / Hyperblastosis: no. of animals with score ++ / Hyperblastosis: no. of animals with score +++ / Inflammatory Infiltration: no. of animals with score 0 / Inflammatory Infiltration: no. of animals with score + / Inflammatory Infiltration: no. of animals with score ++ / Inflammatory Infiltration: no. of animals with score +++: 9 animals; for urine, 1 h Period / urine, 2 h Period / urine, 3 h Period: last dosing day
Procedure: Fifty-five male SD rats were randomly divided into 6 groups, 9 each, except the negative control group for which 10 animals were used. All animals from group 1 to 6 were anesthetized by injection of ketamine under sterile conditions and incised around 1.5 cm with a sterilized surgery scalpel at middle of abdomen. Animals in Group 1 were injected penicillin to prevent infection, and given distill water, 10 ml/kg, once a day, 5 times a week for 5 weeks. Groups from 2 to 6 injected 25% Xiaozhiling into left and right lobes of prostate, 0.1 ml for each lobe and sew the muscle and skin with #1 silk thread. The animals were then given penicillin to prevent infectious. Group 2 was served as negative control group in which animals were treated with distill water by gavage 24 hrs after the Xiaozhiling injection, once a day, 5 times a week for 5 weeks. Group 3 was served as positive control group in which animals were treated with GENURIN by gavage 24 hrs after the Xiaozhiling injection at dose of 60 mg/kg, once a day, 5 times a week (escaping weekend) for 5 weeks. […] On the last dosing day, urine samples from different groups that covered periods of 1, 2 and 3 hrs were collected.
as §1, with “dose,” for “dosage,”, “the prostate weight/volume” for “volume/weight”
Prostate tissues of animals from different groups were embedded with paraffin. The tissue sections were stained with H&E for histpathological examination by an anatomical pathologist.

## S=C=NCCc1ccccc1 [PEITC, phenethyl isothiocyanate]
[1]; aqueous base formulation (Example 13-11), 1 mg/kg gavage
  Average Weight of Prostate: 0.75 g
[1]; aqueous base formulation (Example 13-11), 4 mg/kg gavage
  Average Weight of Prostate: 0.83 g
[1]; aqueous base formulation, 1 mg/kg
  Organ Coefficient: 0.21%
[1]; aqueous base formulation, 4 mg/kg
  Organ Coefficient: 0.23%
[1]; oil base formulation (Example 13-3), 1 mg/kg gavage
  Average Weight of Prostate: 0.91 g
[1]; oil base formulation (Example 13-3), 4 mg/kg gavage
  Average Weight of Prostate: 0.79 g
[1]; oil base formulation, 1 mg/kg
  Organ Coefficient: 0.25%
[1]; oil base formulation, 4 mg/kg
  Organ Coefficient: 0.23%
[2]; PEITC 1 mg/kg gavage (Example 13-11)
  Average of Body Weight: 377 ± 39.1 g
[2]; PEITC 1 mg/kg gavage
  Average Volume of Prostate: 0.78 ± 0.16 cm^3
  Average Weight of Prostate: 0.7 ± 0.15 g
  Inhibition of Organ-coefficient: 28.46%
  Organ Coefficient: 0.186 ± 0.03 %
[2]; PEITC 1 mg/kg
  Bleeding: no. of animals with score 0: 7
  Bleeding: no. of animals with score +: 2
  Bleeding: no. of animals with score ++: 0
  Bleeding: no. of animals with score +++: 0
  Chronic Inflammatory Infiltration: no. of animals with score 0: 9
  Chronic Inflammatory Infiltration: no. of animals with score +: 0
  Chronic Inflammatory Infiltration: no. of animals with score ++: 0
  Chronic Inflammatory Infiltration: no. of animals with score +++: 0
  Congestion: no. of animals with score 0: 3
  Congestion: no. of animals with score +: 6
  Congestion: no. of animals with score ++: 0
  Congestion: no. of animals with score +++: 0
  Edema: no. of animals with score 0: 3
  Edema: no. of animals with score +: 6
  Edema: no. of animals with score ++: 0
  Edema: no. of animals with score +++: 0
  Fibrous Exudation: no. of animals with score 0: 5
  Fibrous Exudation: no. of animals with score +: 4
  Fibrous Exudation: no. of animals with score ++: 0
  Fibrous Exudation: no. of animals with score +++: 0
  Histopathological score of prostatitis, Overall Average X ± SD: 1.83 ± 1.06
  Hyperblastosis: no. of animals with score 0: 7
  Hyperblastosis: no. of animals with score +: 2
  Hyperblastosis: no. of animals with score ++: 0
  Hyperblastosis: no. of animals with score +++: 0
  Inflammatory Infiltration: no. of animals with score 0: 9
  Inflammatory Infiltration: no. of animals with score +: 0
  Inflammatory Infiltration: no. of animals with score ++: 0
  Inflammatory Infiltration: no. of animals with score +++: 0
  urine, 1 h Period: 5.5 ± 1.0 mL
  urine, 2 h Period: 7.0 ± 0.7 mL
  urine, 3 h Period: 7.9 ± 1.0 mL
[2]; PEITC 1 mg/kg, FIG. 7.5
  congestion, edema, fibroid and leukocyte infiltration versus untreated prostatitis animals (slide): less severe
[2]; PEITC 2 mg/kg gavage (Example 13-11)
  Average of Body Weight: 360 ± 24.8 g
[2]; PEITC 2 mg/kg gavage
  Average Volume of Prostate: 0.82 ± 0.13 cm^3
  Average Weight of Prostate: 0.70 ± 0.12 g
  Inhibition of Organ-coefficient: 27.69%
  Organ Coefficient: 0.188 ± 0.03 %
[2]; PEITC 2 mg/kg
  Bleeding: no. of animals with score 0: 8
  Bleeding: no. of animals with score +: 1
  Bleeding: no. of animals with score ++: 0
  Bleeding: no. of animals with score +++: 0
  Chronic Inflammatory Infiltration: no. of animals with score 0: 8
  Chronic Inflammatory Infiltration: no. of animals with score +: 0
  Chronic Inflammatory Infiltration: no. of animals with score ++: 1
  Chronic Inflammatory Infiltration: no. of animals with score +++: 0
  Congestion: no. of animals with score 0: 4
  Congestion: no. of animals with score +: 5
  Congestion: no. of animals with score ++: 0
  Congestion: no. of animals with score +++: 0
  Edema: no. of animals with score 0: 6
  Edema: no. of animals with score +: 3
  Edema: no. of animals with score ++: 0
  Edema: no. of animals with score +++: 0
  Fibrous Exudation: no. of animals with score 0: 5
  Fibrous Exudation: no. of animals with score +: 4
  Fibrous Exudation: no. of animals with score ++: 0
  Fibrous Exudation: no. of animals with score +++: 0
  Histopathological score of prostatitis, Overall Average X ± SD: 2.16 ± 1.52
  Hyperblastosis: no. of animals with score 0: 7
  Hyperblastosis: no. of animals with score +: 2
  Hyperblastosis: no. of animals with score ++: 0
  Hyperblastosis: no. of animals with score +++: 0
  Inflammatory Infiltration: no. of animals with score 0: 6
  Inflammatory Infiltration: no. of animals with score +: 3
  Inflammatory Infiltration: no. of animals with score ++: 0
  Inflammatory Infiltration: no. of animals with score +++: 0
  urine, 1 h Period: 6.6 ± 2.1 mL
  urine, 2 h Period: 8.7 ± 1.7 mL
  urine, 3 h Period: 9.2 ± 2.7 mL
[2]; PEITC 4 mg/kg gavage (Example 13-11)
  Average of Body Weight: 370 ± 24.8 g
[2]; PEITC 4 mg/kg gavage
  Average Volume of Prostate: 0.78 ± 0.10 cm^3
  Average Weight of Prostate: 0.72 ± 0.16 g
  Inhibition of Organ-coefficient: 26.15%
  Organ Coefficient: 0.192 ± 0.03 %
[2]; PEITC 4 mg/kg
  Bleeding: no. of animals with score 0: 6
  Bleeding: no. of animals with score +: 3
  Bleeding: no. of animals with score ++: 0
  Bleeding: no. of animals with score +++: 0
  Chronic Inflammatory Infiltration: no. of animals with score 0: 9
  Chronic Inflammatory Infiltration: no. of animals with score +: 0
  Chronic Inflammatory Infiltration: no. of animals with score ++: 0
  Chronic Inflammatory Infiltration: no. of animals with score +++: 0
  Congestion: no. of animals with score 0: 7
  Congestion: no. of animals with score +: 2
  Congestion: no. of animals with score ++: 0
  Congestion: no. of animals with score +++: 0
  Edema: no. of animals with score 0: 5
  Edema: no. of animals with score +: 4
  Edema: no. of animals with score ++: 0
  Edema: no. of animals with score +++: 0
  Fibrous Exudation: no. of animals with score 0: 4
  Fibrous Exudation: no. of animals with score +: 4
  Fibrous Exudation: no. of animals with score ++: 1
  Fibrous Exudation: no. of animals with score +++: 0
  Histopathological score of prostatitis, Overall Average X ± SD: 1.72 ± 0.79
  Hyperblastosis: no. of animals with score 0: 9
  Hyperblastosis: no. of animals with score +: 0
  Hyperblastosis: no. of animals with score ++: 0
  Hyperblastosis: no. of animals with score +++: 0
  Inflammatory Infiltration: no. of animals with score 0: 7
  Inflammatory Infiltration: no. of animals with score +: 2
  Inflammatory Infiltration: no. of animals with score ++: 0
  Inflammatory Infiltration: no. of animals with score +++: 0
  urine, 1 h Period: 5.7 ± 2.2 mL
  urine, 2 h Period: 9.4 ± 1.5 mL
  urine, 3 h Period: 10.4 ± 1.9 mL
[2]; PEITC 4 mg/kg, FIG. 7.3
  histopathological scores versus untreated prostatitis animals (slide): less severe
